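Results reflect a 48-hour exposure of cells in 96-well plates to compound at five concentrations. TGI: total growth inhibition.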
Legend:
Test in all cases: NCI tumour cell line growth inhibition, 48 h
[1] = tested on: DLD-1 colon
[2] = tested on: DMS 114 small cell lung
[3] = tested on: DMS 273 small cell lung
[4] = tested on: SNB-78 CNS
[5] = tested on: XF 498 CNS
[6] = tested on: HOP-18 NSCLC
[7] = tested on: LXFL 529 NSCLC
[8] = tested on: RXF-631 renal

| SMILES | TGI [1] [µM] | TGI [2] [µM] | TGI [3] [µM] | TGI [4] [µM] | TGI [5] [µM] | TGI [6] [µM] | TGI [7] [µM] | TGI [8] [µM] |
| --- | --- | --- | --- | --- | --- | --- | --- | --- |
| CC1CCc2c(sc3ncnc(N/N=C/c4ccc(Cl)c(Cl)c4)c23)C1 (stereo not given) | > 100 | 13.3 | 39.6 | – | – | – | – | – |
| CN(C)CCCNc1c2ccccc2nc2cccc([N+](=O)[O-])c12 | – | 0.0385 | 0.0184 | 0.0601 | 0.0147 | – | – | – |
| CC(=O)NC1=C(C)C(=O)c2c(nc3n2CCC3O)C1=O (stereo not given) | > 100 | 21 | > 100 | 64.4 | 38.1 | > 100 | 41.8 | – |
| CCNC(=O)/C=C/CCC#Cc1ccc(-c2ccc(-c3cccs3)s2)s1 | > 100 | > 100 | > 100 | > 100 | 7.19 | > 100 | > 100 | – |
| N=S(=O)(c1ccccc1)c1ccccc1[N+](=O)[O-] (stereo not given) | > 100 | – | > 100 | > 100 | > 100 | > 100 | > 100 | > 100 |
| COc1cccc2c1C1(O)C2CCCC12OCCCO2 (stereo not given) | > 100 | > 100 | > 100 | > 100 | – | > 100 | > 100 | – |
| [N-]=[N+]=NC1CC(n2cc(COCC(F)(F)F)c(=O)[nH]c2=O)OC1CO (stereo not given) | > 100 | > 100 | > 100 | > 100 | > 100 | – | > 100 | – |

Source: PubChem BioAssay (NCI)
